The text below walks through data of patent publication US10981911B2, “Imidazopyrrolopyridine as inhibitors of the JAK family of kinases” (Janssen Pharmaceutica NV, priority 2016, dated 2021).

Holding throughout (assay type): biochemical
One assay deals with JAK2-JH1JH2 (Homo sapiens (Human), UniProt O60674). Put plainly: Enzymatic inhibition assay (RapidFire HTMS), JAK2. Conditions: 30 μM ATP, 40 μM substrate. Put shortly:
(§1)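 Quenched with 0.5% TFA plus internal-standard peptide; phosphorylated product quantified by RapidFire C4 SPE–ESI-MS, 11-point 1:3 or 1:4 dilutions in duplicate.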

The next assay concerns the target Tyk2-JH1JH2 (Homo sapiens (Human), UniProt P29597, C1142A/C936A). Nature of the assay: Enzymatic inhibition assay (RapidFire HTMS), Tyk2. Conditions: 50 μM ATP, 200 μM substrate. Put shortly: as §1
For a further assay, the target named is JAK3-JH1JH2 (Homo sapiens (Human), UniProt P52333). Put plainly: Enzymatic inhibition assay (RapidFire HTMS), JAK3. Conditions: 150 μM ATP, 40 μM substrate. Put shortly: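 JAK3 JH1JH2 reaction incubated 45 min at 25 °C, then quenched with 0.5% TFA containing 0.15 μM internal standard peptide. Phosphopeptide product measured by RapidFire C4 SPE–ESI MS (positive mode); inhibition from product decrease versus uninhibited enzyme, 11-point 1:3 or 1:4 dilutions in duplicate.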
JAK3-JH1JH2, sequence (P52333 512-1124): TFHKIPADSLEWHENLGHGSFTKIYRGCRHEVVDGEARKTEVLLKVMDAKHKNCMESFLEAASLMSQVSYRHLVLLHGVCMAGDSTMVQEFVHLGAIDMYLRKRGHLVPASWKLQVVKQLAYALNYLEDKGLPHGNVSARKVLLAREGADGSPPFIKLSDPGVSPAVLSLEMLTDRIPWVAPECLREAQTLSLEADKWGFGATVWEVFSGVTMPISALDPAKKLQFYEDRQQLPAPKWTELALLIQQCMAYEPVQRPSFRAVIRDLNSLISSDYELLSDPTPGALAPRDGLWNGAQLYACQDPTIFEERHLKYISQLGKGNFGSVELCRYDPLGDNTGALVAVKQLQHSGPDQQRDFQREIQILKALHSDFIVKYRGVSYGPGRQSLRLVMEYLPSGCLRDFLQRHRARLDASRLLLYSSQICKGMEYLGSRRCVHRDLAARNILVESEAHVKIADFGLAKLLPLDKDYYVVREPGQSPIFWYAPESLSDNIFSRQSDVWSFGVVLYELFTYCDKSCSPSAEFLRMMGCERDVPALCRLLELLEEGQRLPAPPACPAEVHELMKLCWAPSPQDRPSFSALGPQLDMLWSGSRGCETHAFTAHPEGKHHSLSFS

The target of the next assay is JAK1-JH1JH2 (Homo sapiens (Human), UniProt P23458). Put plainly: Enzymatic inhibition assay (RapidFire HTMS), JAK1. Conditions: 12.5 μM ATP, 200 μM substrate; read-out: JAK1-JH2JH1 IC50. A digest of the protocol: as §1
JAK1-JH1JH2, sequence (P23458 574-1154): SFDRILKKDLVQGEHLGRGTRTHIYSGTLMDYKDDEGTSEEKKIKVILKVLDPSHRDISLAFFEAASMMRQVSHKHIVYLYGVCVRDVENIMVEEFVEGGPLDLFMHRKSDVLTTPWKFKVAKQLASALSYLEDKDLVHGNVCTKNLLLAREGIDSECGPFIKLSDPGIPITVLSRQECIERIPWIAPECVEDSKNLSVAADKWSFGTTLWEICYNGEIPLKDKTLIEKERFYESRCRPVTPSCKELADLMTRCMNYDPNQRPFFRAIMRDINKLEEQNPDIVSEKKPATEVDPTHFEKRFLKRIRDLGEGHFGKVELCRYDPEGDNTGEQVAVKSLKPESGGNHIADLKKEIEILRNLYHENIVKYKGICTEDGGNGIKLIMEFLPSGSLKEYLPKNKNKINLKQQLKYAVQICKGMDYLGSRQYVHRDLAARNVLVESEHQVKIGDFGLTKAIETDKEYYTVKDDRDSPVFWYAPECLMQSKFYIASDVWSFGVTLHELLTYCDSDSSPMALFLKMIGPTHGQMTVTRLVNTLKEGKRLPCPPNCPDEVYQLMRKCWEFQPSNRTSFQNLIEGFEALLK

Tyk2-JH1JH2, sequence (P29597 580-1182 C936A/C1142A): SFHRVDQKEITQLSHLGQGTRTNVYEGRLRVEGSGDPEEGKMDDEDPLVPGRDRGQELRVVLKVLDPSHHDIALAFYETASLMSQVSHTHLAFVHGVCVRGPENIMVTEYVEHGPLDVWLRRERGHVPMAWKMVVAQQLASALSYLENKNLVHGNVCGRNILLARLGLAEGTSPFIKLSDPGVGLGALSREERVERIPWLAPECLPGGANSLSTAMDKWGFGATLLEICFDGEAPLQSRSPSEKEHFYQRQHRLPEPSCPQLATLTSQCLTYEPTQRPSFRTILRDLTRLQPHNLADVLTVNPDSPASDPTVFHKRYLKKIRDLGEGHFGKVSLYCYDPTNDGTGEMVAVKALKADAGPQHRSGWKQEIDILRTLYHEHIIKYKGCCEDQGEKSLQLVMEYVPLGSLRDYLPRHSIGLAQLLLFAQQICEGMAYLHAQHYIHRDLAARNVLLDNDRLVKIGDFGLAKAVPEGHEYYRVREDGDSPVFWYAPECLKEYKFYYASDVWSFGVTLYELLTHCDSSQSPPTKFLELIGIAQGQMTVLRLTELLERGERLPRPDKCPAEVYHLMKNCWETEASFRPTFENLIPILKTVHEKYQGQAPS
JAK2-JH1JH2, sequence (O60674 532-1132): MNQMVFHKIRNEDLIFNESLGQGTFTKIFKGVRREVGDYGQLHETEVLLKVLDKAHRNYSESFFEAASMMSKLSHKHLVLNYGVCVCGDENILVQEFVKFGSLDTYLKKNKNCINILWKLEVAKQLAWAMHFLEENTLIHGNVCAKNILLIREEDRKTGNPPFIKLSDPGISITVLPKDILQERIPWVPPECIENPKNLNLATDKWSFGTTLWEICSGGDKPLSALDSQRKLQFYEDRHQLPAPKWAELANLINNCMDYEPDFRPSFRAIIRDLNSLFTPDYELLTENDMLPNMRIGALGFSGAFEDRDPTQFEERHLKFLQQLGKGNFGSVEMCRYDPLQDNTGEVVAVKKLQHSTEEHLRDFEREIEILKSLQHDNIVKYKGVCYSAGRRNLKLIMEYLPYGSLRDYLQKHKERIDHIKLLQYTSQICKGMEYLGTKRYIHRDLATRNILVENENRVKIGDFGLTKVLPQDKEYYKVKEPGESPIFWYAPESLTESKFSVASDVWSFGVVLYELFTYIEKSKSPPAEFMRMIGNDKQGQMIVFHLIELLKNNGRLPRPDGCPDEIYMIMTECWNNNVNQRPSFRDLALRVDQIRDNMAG

As a reminder, the IC50 is the concentration that inhibits the measured activity by half. For `N#CC[C@H]1CC[C@H](n2c(-c3n[nH]cc3Cl)nc3cnc4[nH]ccc4c32)CC1` [Ex. 31, 2-((1r,4r)-4-(2-(4-Chloro-1H-pyrazol-3-yl)imidazo[4,5-d]pyrrolo[2,3-b]pyridin-1(6H)-yl)cyclohexyl)acetonitrile], the IC50 against JAK2-JH1JH2 came out at 5.5 nM; at Tyk2-JH1JH2, 3.7 nM; on JAK3-JH1JH2, 121 nM; on JAK1-JH1JH2, 0.2 nM.

Regarding `CC1CC(C)CC(NC(=O)Cc2nc3cnc4[nH]ccc4c3n2[C@H]2CC[C@H](CC#N)CC2)C1` (stereo partly drawn) [Ex. 75, 2-(1-((1r,4r)-4-(Cyanomethyl)cyclohexyl)-1,6-dihydroimidazo[4,5-d]pyrrolo[2,3-b]pyridin-2-yl)-N-(3,5-dimethylcyclohexyl)acetamide], the IC50 on JAK2-JH1JH2 was 3.4 nM; against Tyk2-JH1JH2, 9.2 nM; against JAK3-JH1JH2, 62.3 nM; on JAK1-JH1JH2, 0.4 nM.

For the compound `N#CCC(=O)N1CC(c2nc3cnc4[nH]ccc4c3n2[C@H]2CC[C@H](CC#N)CC2)C1` [Ex. 160, 3-(3-(1-((1r,4r)-4-(Cyanomethyl)cyclohexyl)-1,6-dihydroimidazo[4,5-d]pyrrolo[2,3-b]pyridin-2-yl)azetidin-1-yl)-3-oxopropanenitrile], the half-maximal inhibitory concentration (IC50) against JAK2-JH1JH2 came to 87.1 nM; against Tyk2-JH1JH2, 52.4 nM; against JAK3-JH1JH2, 1080 nM; on JAK1-JH1JH2 it was 1.5 nM.

Turning to `COCc1nc2cnc3[nH]ccc3c2n1[C@H]1CC[C@H](CC#N)CC1` [Ex. 113, 2-((1r,4r)-4-(2-(Methoxymethyl)imidazo[4,5-d]pyrrolo[2,3-b]pyridin-1(6H)-yl)cyclohexyl)acetonitrile], the IC50 is 10.2 nM against JAK2-JH1JH2, 11.2 nM on Tyk2-JH1JH2, 322 nM against JAK3-JH1JH2 and 0.6 nM on JAK1-JH1JH2.

With `N#CC[C@H]1CC[C@H](n2c(C3CCN(c4ccc(C#N)cc4)CC3)nc3cnc4[nH]ccc4c32)CC1` [Ex. 76, 4-(4-(1-((1r,4r)-4-(Cyanomethyl)cyclohexyl)-1,6-dihydroimidazo[4,5-d]pyrrolo[2,3-b]pyridin-2-yl)piperidin-1-yl)benzonitrile], the IC50 came out at 23.6 nM against JAK2-JH1JH2, 16.8 nM against Tyk2-JH1JH2, 1210 nM on JAK3-JH1JH2 and 0.4 nM on JAK1-JH1JH2.

As to `COC1CCN(C(=O)c2nc3cnc4[nH]ccc4c3n2[C@H]2CC[C@H](CC#N)CC2)CC1` [Ex. 176, 2-((1r,4r)-4-(2-(4-Methoxypiperidine-1-carbonyl)imidazo[4,5-d]pyrrolo[2,3-b]pyridin-1(6H)-yl)cyclohexyl)acetonitrile], the IC50 at JAK2-JH1JH2 was 157 nM; against Tyk2-JH1JH2 it was 127 nM; on JAK3-JH1JH2, 3250 nM; at JAK1-JH1JH2, 2.6 nM.

As to `N#CC[C@H]1CC[C@H](n2c(CC(=O)N3CCS(=O)(=O)CC3)nc3cnc4[nH]ccc4c32)CC1` [Ex. 67, 2-((1r,4r)-4-(2-(2-(1,1-Dioxidothiomorpholino)-2-oxoethyl)imidazo[4,5-d]pyrrolo[2,3-b]pyridin-1(6H)-yl)cyclohexyl)acetonitrile], the IC50 against JAK2-JH1JH2 was 12.3 nM; against Tyk2-JH1JH2, 3.8 nM; on JAK3-JH1JH2 it was 121 nM; on JAK1-JH1JH2 it was 0.3 nM.

Turning to `N#CC[C@H]1CC[C@H](n2c(CC(=O)NCc3cnccn3)nc3cnc4[nH]ccc4c32)CC1` [Ex. 35, 2-(1-((1r,4r)-4-(Cyanomethyl)cyclohexyl)-1,6-dihydroimidazo[4,5-d]pyrrolo[2,3-b]pyridin-2-yl)-N-(pyrazin-2-ylmethyl)acetamide], the concentration for half-maximal inhibition (IC50) on JAK2-JH1JH2 stood at 3.6 nM; against Tyk2-JH1JH2, 4.5 nM; on JAK3-JH1JH2, 107 nM; at JAK1-JH1JH2 it was 0.2 nM.

Take `N#CC[C@H]1CC[C@H](n2c(CC(=O)NCc3ccncn3)nc3cnc4[nH]ccc4c32)CC1` [Ex. 14, 2-(1-((1r,4r)-4-(Cyanomethyl)cyclohexyl)-1,6-dihydroimidazo[4,5-d]pyrrolo[2,3-b]pyridin-2-yl)-N-(pyrimidin-4-ylmethyl)acetamide]: the IC50 against JAK2-JH1JH2 was 1.8 nM; against Tyk2-JH1JH2, 2.8 nM; against JAK3-JH1JH2, 43.7 nM; on JAK1-JH1JH2 it was 0.1 nM.

In the case of `CS(C)(=O)=NCc1nc2cnc3[nH]ccc3c2n1[C@H]1CC[C@H](CC#N)CC1` [Ex. 142, 2-((1r,4r)-4-(2-(((Dimethyl(oxo)-λ^6-sulfanylidene)amino)methyl)imidazo[4,5-d]pyrrolo[2,3-b]pyridin-1(6H)-yl)cyclohexyl)acetonitrile], the IC50 against JAK2-JH1JH2 came to 10 nM; against Tyk2-JH1JH2, 6.9 nM; at JAK3-JH1JH2, 383 nM; at JAK1-JH1JH2, 0.9 nM.

Regarding `N#CC[C@H]1CC[C@H](n2c(CC(=O)NC3CCCCC3)nc3cnc4[nH]ccc4c32)CC1` [Ex. 28, 2-(1-((1r,4r)-4-(Cyanomethyl)cyclohexyl)-1,6-dihydroimidazo[4,5-d]pyrrolo[2,3-b]pyridin-2-yl)-N-cyclohexylacetamide], the IC50 at JAK2-JH1JH2 came out at 2.4 nM; against Tyk2-JH1JH2, 3.5 nM; against JAK3-JH1JH2 it was 32.7 nM; on JAK1-JH1JH2 it was 0.1 nM.

Regarding `N#CC[C@H]1CC[C@H](n2c(CNS(=O)(=O)C3CCCCC3)nc3cnc4[nH]ccc4c32)CC1` [Ex. 141, N-((1-((1r,4r)-4-(Cyanomethyl)cyclohexyl)-1,6-dihydroimidazo[4,5-d]pyrrolo[2,3-b]pyridin-2-yl)methyl)cyclohexanesulfonamide], the IC50 against JAK2-JH1JH2 was 95.8 nM; on Tyk2-JH1JH2 it was 66.7 nM; at JAK3-JH1JH2, 4070 nM; on JAK1-JH1JH2, 0.9 nM.

As for `N#CC[C@H]1CC[C@H](n2c(CC(=O)Nc3ccc(CO)cc3)nc3cnc4[nH]ccc4c32)CC1` [Ex. 7, 2-(1-((1r,4r)-4-(Cyanomethyl)cyclohexyl)-1,6-dihydroimidazo[4,5-d]pyrrolo[2,3-b]pyridin-2-yl)-N-(4-(hydroxymethyl)phenyl)acetamide], the IC50 was found to be 0.6 nM at JAK2-JH1JH2, 0.9 nM against Tyk2-JH1JH2, 13.3 nM at JAK3-JH1JH2 and 0.1 nM on JAK1-JH1JH2.

For the compound `N#CCCS(=O)(=O)NCc1nc2cnc3[nH]ccc3c2n1[C@H]1CC[C@H](CC#N)CC1` [Ex. 13, 2-Cyano-N-((1-((1r,4r)-4-(cyanomethyl)cyclohexyl)-1,6-dihydroimidazo[4,5-d]pyrrolo[2,3-b]pyridin-2-yl)methyl)ethanesulfonamide], the IC50 against JAK2-JH1JH2 stood at 7.1 nM; at Tyk2-JH1JH2 it was 3.3 nM; against JAK3-JH1JH2, 651 nM; at JAK1-JH1JH2 it was 0.1 nM.

In the case of `N#CC[C@H]1CC[C@H](n2c(C3NC(C4CC4)=NO3)nc3cnc4[nH]ccc4c32)CC1` (stereo partly drawn) [Ex. 140, 2-((1r,4r)-4-(2-(3-Cyclopropyl-4,5-dihydro-1,2,4-oxadiazol-5-yl)imidazo[4,5-d]pyrrolo[2,3-b]pyridin-1(6H)-yl)cyclohexyl)acetonitrile], the IC50 against JAK2-JH1JH2 was found to be 4.5 nM; at Tyk2-JH1JH2 it was 14.9 nM; against JAK3-JH1JH2 it was 56.8 nM; at JAK1-JH1JH2 it was 0.9 nM.

With `N#CC[C@H]1CC[C@H](n2c(CNC(=O)c3cn[nH]c3)nc3cnc4[nH]ccc4c32)CC1` [Ex. 144, N-((1-((1r,4r)-4-(Cyanomethyl)cyclohexyl)-1,6-dihydroimidazo[4,5-d]pyrrolo[2,3-b]pyridin-2-yl)methyl)-1H-pyrazole-4-carboxamide], the IC50 at JAK2-JH1JH2 came out at 43.1 nM; against Tyk2-JH1JH2 it was 16.2 nM; at JAK3-JH1JH2, 376 nM; at JAK1-JH1JH2, 1 nM.

On to `N#CC[C@H]1CC[C@H](n2c(COC(=O)NC34CC5CC(CC(C5)C3)C4)nc3cnc4[nH]ccc4c32)CC1` [Ex. 196, (1-((1r,4r)-4-(Cyanomethyl)cyclohexyl)-1,6-dihydroimidazo[4,5-d]pyrrolo[2,3-b]pyridin-2-yl)methyl (3S,5S,7S)-adamantan-1-ylcarbamate], for which the IC50 against JAK2-JH1JH2 came out at 41.4 nM; against Tyk2-JH1JH2, 41.8 nM; at JAK3-JH1JH2 it was 660 nM; at JAK1-JH1JH2 it was 3.4 nM.

Consider `CC(C)(O)CC(=O)NCc1nc2cnc3[nH]ccc3c2n1[C@H]1CC[C@H](CC#N)CC1` [Ex. 116, N-((1-((1r,4r)-4-(Cyanomethyl)cyclohexyl)-1,6-dihydroimidazo[4,5-d]pyrrolo[2,3-b]pyridin-2-yl)methyl)-3-hydroxy-3-methylbutanamide], for which the IC50 was 86.7 nM against JAK2-JH1JH2, 50.9 nM against Tyk2-JH1JH2, 1190 nM on JAK3-JH1JH2 and 0.6 nM at JAK1-JH1JH2.

Turning to `CC(C)(O)CCNC(=O)Cc1nc2cnc3[nH]ccc3c2n1[C@H]1CC[C@H](CC#N)CC1` [Ex. 59, 2-(1-((1r,4r)-4-(Cyanomethyl)cyclohexyl)-1,6-dihydroimidazo[4,5-d]pyrrolo[2,3-b]pyridin-2-yl)-N-(3-hydroxy-3-methylbutyl)acetamide], the 50% inhibitory concentration (IC50) at JAK2-JH1JH2 amounted to 6.7 nM; against Tyk2-JH1JH2 it was 7.2 nM; on JAK3-JH1JH2, 122 nM; on JAK1-JH1JH2, 0.3 nM.

For `N#CC[C@H]1CC[C@H](n2c(-c3nc[nH]n3)nc3cnc4[nH]ccc4c32)CC1` [Ex. 9, 2-((1r,4r)-4-(2-(1H-1,2,4-Triazol-3-yl)imidazo[4,5-d]pyrrolo[2,3-b]pyridin-1(6H)-yl)cyclohexyl)acetonitrile], the IC50 amounted to 0.3 nM at JAK2-JH1JH2, 1.6 nM against Tyk2-JH1JH2, 48.9 nM against JAK3-JH1JH2 and 0.1 nM at JAK1-JH1JH2.

Consider `CC(C)(O)C1CCN(C(=O)Cc2nc3cnc4[nH]ccc4c3n2[C@H]2CC[C@H](CC#N)CC2)CC1` [Ex. 93, 2-((1r,4r)-4-(2-(2-(4-(2-Hydroxypropan-2-yl)piperidin-1-yl)-2-oxoethyl)imidazo[4,5-d]pyrrolo[2,3-b]pyridin-1(6H)-yl)cyclohexyl)acetonitrile], for which the IC50 is 12 nM on JAK2-JH1JH2, 4.5 nM against Tyk2-JH1JH2, 181 nM against JAK3-JH1JH2 and 0.5 nM at JAK1-JH1JH2.
